Measured values reported in the supplement of paper PMC10307832.

Assays:
Assay in all cases: relative viability (nuclei count vs DMSO), 5 days (fraction); higher = more cells survive
NCI-H2023 = test system: NCI-H2023
Summary of the method: (§1)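 Five library-drug doses in √10 steps were combined with a fixed anchor-drug dose, or a single drug was given alone, by pin tool to lung cancer cell lines in 1536-well plates the day after seeding. Nuclei were stained and counted after 5 days. Relative viability is the nuclei count in treated wells over that in vehicle wells, taken as the median of duplicate plates.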

NCI-H1993 = test system: NCI-H1993
Summary of the method: as §1

NCI-H650 = test system: NCI-H650
Summary of the method: as §1

NCI-H1395 = test system: NCI-H1395
Summary of the method: as §1

LOU-NH91 = test system: LOU-NH91
Summary of the method: as §1

NCI-H1975 = test system: NCI-H1975
Summary of the method: as §1

NCI-H2228 = test system: NCI-H2228
Summary of the method: as §1

NCI-H2405 = test system: NCI-H2405
Summary of the method: as §1

LU99A = test system: LU99A
Summary of the method: as §1

NCI-H460 = test system: NCI-H460
Summary of the method: as §1

SW 1573 = test system: SW 1573
Summary of the method: as §1

NCI-H1915 = test system: NCI-H1915
Summary of the method: as §1

A-427 = test system: A-427
Summary of the method: as §1

HARA = test system: HARA
Summary of the method: as §1

RERF-LC-KJ = test system: RERF-LC-KJ
Summary of the method: as §1

EKVX = test system: EKVX
Summary of the method: as §1

BEN = test system: BEN
Summary of the method: as §1

NCI-H1793 = test system: NCI-H1793
Summary of the method: as §1

COR-L23 = test system: COR-L23
Summary of the method: as §1

NCI-H838 = test system: NCI-H838
Summary of the method: as §1

NCI-H1650 = test system: NCI-H1650
Summary of the method: as §1

NCI-H1666 = test system: NCI-H1666
Summary of the method: as §1

Compound `COCC1(CO)C(=O)C2CCN1CC2` (centres undefined) [PRIMA-1MET] + O=C(CCCCCCC(=O)Nc1ccccc1)NO [Vorinostat] (partner 1 µM) has a relative viability (NCI-H2023; first compound 0.2 µM) of 1.06, a relative viability (NCI-H2023; first compound 0.6325 µM) of 0.474 and a relative viability (NCI-H2023; first compound 2 µM) of 0.442. The relative viability (NCI-H2023; first compound 6.325 µM) was 0.734, the relative viability (NCI-H2023; first compound 20 µM) was 0.254 and the relative viability (NCI-H1993; first compound 0.2 µM) was 0.743. The relative viability (NCI-H1993; first compound 2 µM) was 0.629, the relative viability (NCI-H1993; first compound 6.325 µM) was 0.651 and the relative viability (NCI-H1993; first compound 20 µM) was 0.619. For the same compound, the relative viability (NCI-H650; first compound 0.2 µM) was 0.54, the relative viability (NCI-H650; first compound 0.6325 µM) was 0.361 and the relative viability (NCI-H650; first compound 2 µM) was 0.442. The relative viability (NCI-H650; first compound 6.325 µM) was 0.311, the relative viability (NCI-H650; first compound 20 µM) was 0.0619 and the relative viability (NCI-H1395; first compound 0.2 µM) was 0.623. The relative viability (NCI-H1395; first compound 2 µM) was 0.534, the relative viability (NCI-H1395; first compound 6.325 µM) was 0.762 and the relative viability (NCI-H1395; first compound 20 µM) was 0.26. For the same compound, the relative viability (LOU-NH91; first compound 0.2 µM) was 0.987, the relative viability (LOU-NH91; first compound 0.6325 µM) was 0.878 and the relative viability (LOU-NH91; first compound 2 µM) was 0.759. It also gave a relative viability (LOU-NH91; first compound 6.325 µM) of 0.863, a relative viability (LOU-NH91; first compound 20 µM) of 0.296 and a relative viability (NCI-H1975; first compound 0.2 µM) of 0.766. It also gave a relative viability (NCI-H1975; first compound 0.6325 µM) of 0.657, a relative viability (NCI-H1975; first compound 2 µM) of 0.736 and a relative viability (NCI-H1975; first compound 6.325 µM) of 0.725. The relative viability (NCI-H1975; first compound 20 µM) was 0.698, the relative viability (NCI-H2228; first compound 0.2 µM) was 0.792 and the relative viability (NCI-H2228; first compound 0.6325 µM) was 0.74. It also gave a relative viability (NCI-H2228; first compound 2 µM) of 0.6, a relative viability (NCI-H2228; first compound 6.325 µM) of 0.606 and a relative viability (NCI-H2228; first compound 20 µM) of 0.0625. The relative viability (NCI-H2405; first compound 0.2 µM) was 1.03, the relative viability (NCI-H2405; first compound 0.6325 µM) was 0.945 and the relative viability (NCI-H2405; first compound 6.325 µM) was 0.934. For the same compound, the relative viability (NCI-H2405; first compound 20 µM) was 0.106, the relative viability (LU99A; first compound 0.2 µM) was 0.628 and the relative viability (LU99A; first compound 0.6325 µM) was 0.342. The relative viability (LU99A; first compound 2 µM) was 0.54, the relative viability (LU99A; first compound 6.325 µM) was 0.436 and the relative viability (LU99A; first compound 20 µM) was 0.113. It also gave a relative viability (NCI-H460; first compound 0.2 µM) of 0.949, a relative viability (NCI-H460; first compound 0.6325 µM) of 0.588 and a relative viability (NCI-H460; first compound 2 µM) of 0.686. The relative viability (NCI-H460; first compound 6.325 µM) was 0.613, the relative viability (NCI-H460; first compound 20 µM) was 0.0194 and the relative viability (SW 1573; first compound 0.2 µM) was 0.83. For the same compound, the relative viability (SW 1573; first compound 0.6325 µM) was 0.553, the relative viability (SW 1573; first compound 2 µM) was 0.429 and the relative viability (SW 1573; first compound 6.325 µM) was 0.0463. For the same compound, the relative viability (SW 1573; first compound 20 µM) was 0.0325, the relative viability (NCI-H1915; first compound 0.2 µM) was 0.605 and the relative viability (NCI-H1915; first compound 0.6325 µM) was 0.378. The relative viability (NCI-H1915; first compound 2 µM) was 0.446, the relative viability (NCI-H1915; first compound 6.325 µM) was 0.625 and the relative viability (NCI-H1915; first compound 20 µM) was 0.482. It also gave a relative viability (A-427; first compound 0.2 µM) of 1.1, a relative viability (A-427; first compound 0.6325 µM) of 0.869 and a relative viability (A-427; first compound 2 µM) of 0.856. The relative viability (A-427; first compound 6.325 µM) was 0.949, the relative viability (A-427; first compound 20 µM) was 0.865 and the relative viability (HARA; first compound 0.2 µM) was 0.544. The relative viability (HARA; first compound 0.6325 µM) was 0.266, the relative viability (HARA; first compound 6.325 µM) was 0.587 and the relative viability (HARA; first compound 20 µM) was 0.499. For the same compound, the relative viability (RERF-LC-KJ; first compound 0.2 µM) was 0.817, the relative viability (RERF-LC-KJ; first compound 0.6325 µM) was 0.507 and the relative viability (RERF-LC-KJ; first compound 2 µM) was 0.589. It also gave a relative viability (RERF-LC-KJ; first compound 6.325 µM) of 0.911, a relative viability (RERF-LC-KJ; first compound 20 µM) of 0.659 and a relative viability (EKVX; first compound 0.2 µM) of 0.995. It also gave a relative viability (EKVX; first compound 0.6325 µM) of 0.548, a relative viability (EKVX; first compound 2 µM) of 0.672 and a relative viability (EKVX; first compound 6.325 µM) of 0.849. For the same compound, the relative viability (EKVX; first compound 20 µM) was 0.64, the relative viability (BEN; first compound 0.2 µM) was 0.664 and the relative viability (BEN; first compound 0.6325 µM) was 0.389. It also gave a relative viability (BEN; first compound 6.325 µM) of 0.571, a relative viability (BEN; first compound 20 µM) of 0.613 and a relative viability (NCI-H1793; first compound 0.2 µM) of 0.932. For the same compound, the relative viability (NCI-H1793; first compound 0.6325 µM) was 0.488, the relative viability (NCI-H1793; first compound 6.325 µM) was 0.797 and the relative viability (NCI-H1793; first compound 20 µM) was 0.762. It also gave a relative viability (COR-L23; first compound 0.2 µM) of 0.487, a relative viability (COR-L23; first compound 0.6325 µM) of 0.432 and a relative viability (COR-L23; first compound 2 µM) of 0.454. It also gave a relative viability (COR-L23; first compound 6.325 µM) of 0.344, a relative viability (COR-L23; first compound 20 µM) of 0.0281 and a relative viability (NCI-H838; first compound 0.2 µM) of 0.769. For the same compound, the relative viability (NCI-H838; first compound 0.6325 µM) was 0.691, the relative viability (NCI-H838; first compound 2 µM) was 0.694 and the relative viability (NCI-H838; first compound 6.325 µM) was 0.762. For the same compound, the relative viability (NCI-H838; first compound 20 µM) was 0.546, the relative viability (NCI-H1650; first compound 0.2 µM) was 0.619 and the relative viability (NCI-H1650; first compound 0.6325 µM) was 0.403. For the same compound, the relative viability (NCI-H1650; first compound 2 µM) was 0.55, the relative viability (NCI-H1650; first compound 6.325 µM) was 0.703 and the relative viability (NCI-H1650; first compound 20 µM) was 0.406. The relative viability (NCI-H1666; first compound 0.2 µM) was 1.03, the relative viability (NCI-H1666; first compound 0.6325 µM) was 0.915 and the relative viability (NCI-H1666; first compound 2 µM) was 1.05. It also gave a relative viability (NCI-H1666; first compound 6.325 µM) of 1.07 and a relative viability (NCI-H1666; first compound 20 µM) of 0.956.
